Test results taken from patent US20260077055A1, “COMPOSITIONS OF POLYPLEXES AND SAPONINS” (SAPREME TECHNOLOGIES B.V., priority 2022, published 2026).

Tested on: EGFR-A2058 cells
Assay: Cell viability (MTS) after polyplex transfection of A2058 cells
Assay type: cell-based
Details: co-administered with PAMAM G5(PEG-N3)6.2 npSaporin polyplexes; 73 nM Cetuximab-SO1861 or 4 μM SO1861-EMCH; 72 h
Procedure: Spectrophotometry: Concentrations were determined using either a Thermo Nanodrop 2000 spectrometer or Perkin Elmer Lambda 365 Spectrophotometer. DLS measurements: DLS measurements were performed on a Malvern Nano ZS (Malvern Instruments, U.K.), operating at 633 nm with a 173° scattering angle, at 25 or 37° C. DLS mean diameters were obtained from the intensity particle size distribution provided by Malvern Zetasizer Software. DLS histograms were obtained from the intensity particle size distributions. […] Infrared Spectroscopy: FT-IR spectra were recorded on a Bruker Vertex 70v, equipped with a RockSolid interferometer, after preparing the samples (1-2 mg) as KBr pellets. […] NMR Spectroscopy: 1H NMR spectra were recorded on a 11.7 T Bruker DRX-500 spectrometer. […] Experiments were recorded acquiring 64-512 scans, with a pre-scan delay (d1) of 12 s, and an acquisition time (aq) of 4 s at 300 K. 13C NMR spectrum was recorder on a 9.39 T Varian Innova 400 spectrometer. […] After treatment, the cells were incubated for 72 hr at 37° C. before the cell viability was determined by a MTS-assay performed according to the manufacturer's instruction (CellTiter 96® AQueous One Solution Cell Proliferation Assay, Promega). […]

CC(=O)OC1C(C)OC(OC2C(C)OC(OC(=O)[C@]34CCC(C)(C)CC3C3=CCC5[C@@]6(C)CC[C@H](OC7OC(C(=O)O)C(O)C(OC8OCC(O)C(O)C8O)C7OC7OC(CO)C(O)C(O)C7O)[C@@](C)(/C=N/NC(=O)CCCCCN7C(=O)C=CC7=O)C6CC[C@@]5(C)[C@]3(C)C[C@H]4O)C(OC3OC(C)C(OC4OCC(O)C(OC5OC(CO)C(O)C(O)C5O)C4O)C(O)C3O)C2O)C(O)C1OC1OCC(O)C(O)C1O (stereo partly shown) [SO1861-EMCH]
cytoplasmic delivery of npSaporin / cell killing: strongly enhanced the cytoplasmic delivery of npSaporin
